IC50 data for 9 compounds are collected here from patent US12187713B2, “Immunomodulators, compositions and methods thereof” (Betta Pharmaceuticals Co., Ltd, priority 2019, dated 2025).

Broadly, the IC50 is the midpoint of a concentration-inhibition curve.

PD-1/PD-L1, sequence (Q9NZQ7 19-238): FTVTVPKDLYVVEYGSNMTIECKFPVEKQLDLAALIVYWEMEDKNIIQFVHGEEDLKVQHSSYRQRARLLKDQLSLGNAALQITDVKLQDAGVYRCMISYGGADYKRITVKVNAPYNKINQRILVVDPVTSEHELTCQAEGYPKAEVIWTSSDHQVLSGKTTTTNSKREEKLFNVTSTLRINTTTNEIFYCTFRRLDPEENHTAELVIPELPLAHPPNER

The first assay addresses PD-1/PD-L1 (Homo sapiens (Human), UniProt Q9NZQ7). Briefly: PD-1/PD-L1 Binding Assay (Alphascreen). Particulars: numeric values. The method in brief: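 PD-1/PD-L1 binding detected by anti-6×His acceptor and streptavidin donor beads after 120 min in the dark at 25 °C. Beforehand, the two proteins were incubated 15 min at 25 °C with inhibitor at 0.015–300 nM (1% DMSO). IC50 comes from a log concentration–response curve.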
On the technique in general: Bead proximity is the source of the signal in Alpha formats.
Compound `COC(=O)N[C@H](C(=O)N[C@H]1CCN(Cc2ccc(-c3cccc(-c4cccc(-c5nc6cc(CN7CCC[C@H]7C(=O)O)c(OC(F)F)cc6o5)c4C)c3C)cc2)C1)C(C)C` [Example 257, ((6-(difluoromethoxy)-2-(4″-(((S)-3-((S)-2-((methoxycarbonyl)amino)-3-methylbutanamido)pyrrolidin-1-yl)methyl)-2,2′-dimethyl-[1,1′:3′,1″-terphenyl]-3-yl)benzo[d]oxazol-5-yl)methyl)-L-proline] displayed an IC50 of 4.4 nM.

For `Cc1c(-c2ccc(CN3CCCC3)nc2)cccc1-c1cccc(-c2nc3cc(CN4CCC[C@H]4C(=O)O)c(OC(F)F)cc3o2)c1C` [Example 263, ((6-(difluoromethoxy)-2-(2,2′-dimethyl-3′-(6-(pyrrolidin-1-ylmethyl)pyridin-3-yl)-[1,1′-biphenyl]-3-yl)benzo[d]oxazol-5-yl)methyl)-L-proline], the IC50 came out at 0.98 nM. The compound `Cc1c(-c2cnc(CN3CCCC3)c(F)c2)cccc1-c1cccc(-c2nc3cc(CN4CCC[C@H]4C(=O)O)c(OC(F)F)cc3o2)c1C` [Example 265, ((6-(difluoromethoxy)-2-(3′-(5-fluoro-6-(pyrrolidin-1-ylmethyl)pyridin-3-yl)-2,2′-dimethyl-[1,1′-biphenyl]-3-yl)benzo[d]oxazol-5-yl)methyl)-L-proline] yielded a 50% inhibitory concentration (IC50) of 0.73 nM.

The assay is the same for the next values; noted with them: range symbols.
For the compound `Cc1c(-c2ccc(CN3Cc4ccc(NC(N)=O)cc4C3)c(F)c2)cccc1-c1cccc(-c2nc3cc(CN4CCC[C@H]4C(=O)O)c(OC(F)F)cc3o2)c1C` [Example 258, ((6-(difluoromethoxy)-2-(3″-fluoro-2,2′-dimethyl-4″-((5-ureidoisoindolin-2-yl)methyl)-[1,1′:3′,1″-terphenyl]-3-yl)benzo[d]oxazol-5-yl)methyl)-L-proline], the IC50 was in the range of 5 to 50 nM. `Cc1c(-c2nc3cc(CN4CC[C@H](C(=O)O)C4)c(OC(F)F)cc3o2)cccc1-c1cccc(-c2nc3cc(CN4CC[C@H](C)C4)cc(C#N)c3o2)c1C` [Example 259, (S)-1-((2-(3′-(7-cyano-5-(((S)-3-methylpyrrolidin-1-yl)methyl)benzo[d]oxazol-2-yl)-2,2′-dimethyl-[1,1′-biphenyl]-3-yl)-6-(difluoromethoxy)benzo[d]oxazol-5-yl)methyl)pyrrolidine-3-carboxylic acid] had an IC50 of 0.1 to 5 nM. `Cc1c(-c2ccc(CN3CCC(NC(N)=O)C3)c(F)c2)cccc1-c1cccc(-c2nc3cc(CN4CCC[C@H]4C(=O)O)c(OC(F)F)cc3o2)c1C` (stereo partly drawn) [Example 260, ((6-(difluoromethoxy)-2-(3″-fluoro-2,2′-dimethyl-4″-((3-ureidopyrrolidin-1-yl)methyl)-[1,1′:3′,1″-terphenyl]-3-yl)benzo[d]oxazol-5-yl)methyl)-L-proline] showed a concentration for half-maximal inhibition (IC50) of 5 to 50 nM.

The compound `Cc1c(-c2nc3cc(CN4CCC[C@H]4C(=O)O)c(OC(F)F)cc3o2)cccc1-c1cccc(-c2nc3cc(CN4CC[C@H](Cl)C4)cc(C#N)c3o2)c1C` [Example 261, ((2-(3′-(5-(((S)-3-chloropyrrolidin-1-yl)methyl)-7-cyanobenzo [d]oxazol-2-yl)-2,2′-dimethyl-[1,1′-biphenyl]-3-yl)-6-(difluoromethoxy)benzo[d]oxazol-5-yl)methyl)-L-proline] gave an IC50 of 0.1 to 5 nM.

As for `Cc1c(-c2nc3cc(CN4CCC[C@H]4C(=O)O)c(OC(F)F)cc3o2)cccc1-c1cccc(-c2cnc(CN3CCCC3)cc2F)c1C` [Example 262, ((6-(difluoromethoxy)-2-(3′-(4-fluoro-6-(pyrrolidin-1-ylmethyl)pyridin-3-yl)-2,2′-dimethyl-[1,1′-biphenyl]-3-yl)benzo[d]oxazol-5-yl)methyl)-L-proline], the IC50 fell in the range of 5 to 50 nM.

For `Cc1c(-c2ccc(CN3CCCC3)cn2)cccc1-c1cccc(-c2nc3cc(CN4CCC[C@H]4C(=O)O)c(OC(F)F)cc3o2)c1C` [Example 264, ((6-(difluoromethoxy)-2-(2,2′-dimethyl-3′-(5-(pyrrolidin-1-ylmethyl)pyridin-2-yl)-[1,1′-biphenyl]-3-yl)benzo[d]oxazol-5-yl)methyl)-L-proline], the concentration for half-maximal inhibition (IC50) is 0.1 to 5 nM.
